Laboratory results: US6521445B1, “Process for preparing optically active glycidate esters” (Sepracor, Inc., priority 1988, dated 2003)

Tests used:
[1] = aqueous solution; cited from earlier work
[2] = Non-enzymatic degradation of substrate ester in the presence of BSA; format: physicochemical
From the text: Following these experiments, another factor was then considered. As the interfacial activity of any compound will be affected by surfactants, for instance a protein, one could expect the presence of the enzyme to exert effects on the non-enzymatic nonspecific degradation of the substrate compound. To test this proposition, control experiments were run in which bovine serum albumin (BSA) was substituted for the hydrolytic enzyme in the reaction mixture. The chlorinated hydrocarbons and p-xylene were omitted for convenience.
Racemic 3-(4-methoxyphenyl) glycidic acid methyl ester (10.0 mmols, 2.08 g) was dissolved in 50 mL of the chosen organic solvent, and added to 50 mL of 200 mM sodium phosphate buffer at the chosen pH (7.0, 8.0, or 8.5) in a 250 mL shaker flask. Bovine serum albumin (BSA, 100 mg) was then added. The flask was closed, and agitated for 18 hours at ambient temperature (20-25° C.). The reaction mixture was then poured into a separatory funnel, the organic layer removed (except in the case of 1,4-dioxane, which is miscible in water), and the aqueous layer washed with diethyl ether. The organic layers were then combined, backwashed with water, and dried over anhydrous magnesium sulfate. The organic solvent was then removed under reduced pressure, and the recovered ester weighed to determine the extent of non-enzymatic degradation.

[3] = Stability of glycidic ester in aqueous phosphate buffer with and without toluene; format: physicochemical
From the text: In the present invention, enzyme catalysts are present either dissolved or dispersed in an aqueous phase. Although the glycidic esters described herein are generally quite insoluble in water, the epoxide ring is susceptible to opening through nucleophilic attack by species such as hydroxide ions and water molecules, even in the absence of enzymes. […] Therefore, the use of an organic phase as a method for protecting the substrate from undesired transformations by water, hydroxide ions, or water-soluble buffer systems is a significant aspect of this invention. These experimental observations indicate the need for a biphasic system, and preferably a multiphase/extractive membrane reactor as described below, for efficiently conducting the enzyme-mediated resolution process disclosed herein.

[4] = Stability of GLOP / racemic ester in solvents on standing; format: physicochemical
From the text: At six days, only about half of the original amount of ester remained.

[5] = Solubility of racemic ester in toluene; format: physicochemical; details: 4° C.
Method: The amount of toluene required to dissolve the racemic ester at 4° C. was determined by dividing the weight of racemic ester by the solubility of the ester in toluene at this temperature (˜0.13 g of racemic ester/g of toluene). The weight of toluene required was then 19.07/0.13=146.7 g. The two organic fractions were combined and toluene was then evaporated until the total weight of toluene plus ester was equal to 146.7+109.5 or 256.2 g. Afterward, the organic concentrate containing ester and toluene was cooled to 4° C. for 18 hours in order to crystallize the (2R,3S) enantiomer of the ester. The precipitated crystals were then filtered and analyzed, while the mother liquor was saved for recycling. The amount of solids collected was 91.9 g. […] The yield of resolved ester was 38.6%.

[6] = Loss of compound A on extraction with 10% bisulfite solution; format: physicochemical; details: diethyl ether solution extracted once with 10% bisulfite solution
Method: 2.0 g of pure, racemic compound A were dissolved in 200 mls of diethyl ether. This organic solution was then extracted once with 250 mls of a 10% bisulfite solution, washed with 250 mls water, dried over magnesium sulphate, and evaporated to leave 1.8 g of racemic compound A, indicating a 10% loss of material. Recovery of material in the absence of the bisulfite wash was nearly quantitative.

[7] = Degradation rate of racemic ester in membrane reactor system, toluene vs MIBK; format: physicochemical; details: organic solution in contact with 50 mM phosphate buffer pH 8.0, membrane reactor
Method: In a separate experiment, the degradation rate of racemic ester was measured in a membrane reactor system using two kinds of solvent, toluene and methyl isobutyl ketone (MIBK), at different concentrations of glycidyl ester. These organic solutions were brought into contact separately with a 50 mM phosphate buffer (pH 8.0) to simulate enzymatic resolution conditions. The amount of ester present in the organic solutions was monitored over several hours.

Lipase OF = assay: Degree of inhibition by reaction products: initial rate of hydrolysis of compound A by Lipase OF; format: biochemical, Candida cylindracea; details: pH 8.0, 400 mM compound A in toluene, in the presence of 1 mmole (50 mM) of the compound, A alone = 1.0
Method: (§1) A reaction mixture composed of 12 mls of 50 mM sodium phosphate buffer at pH 8.0 and 8 mls of a 400 mM toluene solution of pure, racemic compound A, was rapidly stirred and the reaction rate monitored by a device known as a “pH stat”. A given amount of a given commercial enzyme preparation was then added to the reaction mixture, and the initial rate of hydrolysis calculated. The reaction was repeated in the presence of 1 mmole (50 mM) of compound C, in the presence of 1 mmole (50 mM) of compound D, and in the presence of 1 mmole (50 mM) of compound E. The results are tabulated in Table 11.

Lipase MAP = assay: Degree of inhibition by reaction products: initial rate of hydrolysis of compound A by Lipase MAP; format: biochemical; details: pH 8.0, 400 mM compound A in toluene, in the presence of 1 mmole (50 mM) of the compound, A alone = 1.0
Method: as §1

Lipase P = target: T1, Lipase P (Burkholderia cepacia, UniProt P22088); assay: Degree of inhibition by reaction products: initial rate of hydrolysis of compound A by Lipase P; format: biochemical; details: pH 8.0, 400 mM compound A in toluene, in the presence of 1 mmole (50 mM) of the compound, A alone = 1.0
T1 construct: purchased Amano
T1 sequence (P22088 45-364): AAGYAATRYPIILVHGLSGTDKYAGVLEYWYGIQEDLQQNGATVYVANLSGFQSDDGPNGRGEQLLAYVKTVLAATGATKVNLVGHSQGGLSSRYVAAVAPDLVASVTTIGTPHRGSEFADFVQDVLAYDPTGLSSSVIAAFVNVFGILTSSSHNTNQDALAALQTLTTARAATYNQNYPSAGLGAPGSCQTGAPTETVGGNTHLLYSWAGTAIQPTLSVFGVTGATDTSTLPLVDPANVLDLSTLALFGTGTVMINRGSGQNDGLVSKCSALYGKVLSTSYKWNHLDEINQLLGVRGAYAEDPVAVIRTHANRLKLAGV
Method: as §1

Palatase M = target: T2, Palatase M (Rhizomucor miehei, UniProt P19515); assay: Degree of inhibition by reaction products: initial rate of hydrolysis of compound A by Palatase M; format: biochemical; details: pH 8.0, 400 mM compound A in toluene, in the presence of 1 mmole (50 mM) of the compound, A alone = 1.0
T2 construct: purchased Novo
T2 sequence (P19515 95-363): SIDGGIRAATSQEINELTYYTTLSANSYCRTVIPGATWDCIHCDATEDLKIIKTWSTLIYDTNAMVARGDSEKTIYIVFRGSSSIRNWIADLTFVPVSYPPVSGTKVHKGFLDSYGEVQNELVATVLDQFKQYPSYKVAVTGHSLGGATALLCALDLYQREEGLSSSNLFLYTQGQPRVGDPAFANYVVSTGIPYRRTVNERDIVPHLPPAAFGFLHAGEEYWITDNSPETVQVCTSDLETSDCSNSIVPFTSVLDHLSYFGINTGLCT
Method: as §1

## O=S(O)O [bisulfite anion]
[1]
  pKa: approximately 7

## COC(=O)[C@@H]1O[C@H]1c1ccc(OC)cc1 (relative stereo) [Compound A, trans-3-(4-methoxyphenyl)glycidic acid methyl ester]
[2]; 1,4-dioxane, pH 7.0, 18 hours ambient
  Percent degradation: 40.9%
[2]; 1,4-dioxane, pH 8.0, 18 hours ambient
  Percent degradation: 21.6%
[2]; MIBK, pH 8.0, 18 hours ambient
  Percent degradation: 15.0%
[2]; MIBK, pH 8.5, 18 hours ambient
  Percent degradation: 12.0%
[2]; MetBuO, pH 7.0, 18 hours ambient
  Percent degradation: 41.8%
[2]; MetBuO, pH 8.0, 18 hours ambient
  Percent degradation: 22.1%
[2]; benzene, pH 7.0, 18 hours ambient
  Percent degradation: 38.5%
[2]; benzene, pH 8.0, 18 hours ambient
  Percent degradation: 14.4%
[2]; cyclohexane, pH 7.0, 18 hours ambient
  Percent degradation: 71.6%
[2]; cyclohexane, pH 8.0, 18 hours ambient
  Percent degradation: 38.5%
[2]; toluene, pH 8.0, 18 hours ambient
  Percent degradation: 14.3%
[2]; toluene, pH 8.5, 18 hours ambient
  Percent degradation: 19.1%
[3]; aqueous sodium phosphate buffer pH 7.0, 18 hours, ambient temperature, no organic solvent or enzyme
  Stability in aqueous buffer: loss of glycidic ester
[3]; toluene in 1-to-1 phase ratio with pH 7.0 buffer, 18 hours
  Glycidic ester recovered: 100%
[4]; saturated methanol solution, room temperature, six days
  Original amount of ester remaining: about half
[4]; saturated methanol solution, room temperature, two days, HPLC
  Original amount of ester degraded: about 9%
[5]
  Solubility of the ester in toluene: ~0.13 g of racemic ester/g of toluene
[6]
  Loss of material: 10%
[7]
  Degradation rate constant in MIBK relative to toluene: about 3 times

## COc1ccc(CC(=O)O)cc1 [D, 4-methoxyphenylacetic acid]
Lipase OF
  Relative Initial Rates: 1.18
Lipase MAP
  Relative Initial Rates: 0.99
Lipase P
  Relative Initial Rates: 1.07
Palatase M
  Relative Initial Rates: >1.0

## COc1ccc(CC=O)cc1 [C, 4-methoxyphenylacetaldehyde]
Lipase OF
  Relative Initial Rates: 0.63
Lipase MAP
  Relative Initial Rates: 0.73
Lipase P
  Relative Initial Rates: 1.00
Palatase M
  Relative Initial Rates: 0.38

## COC(=O)[C@@H]1O[C@H]1c1ccc(OC)cc1 [resolved GLOP, (2R,3S)-3-(4-methoxyphenyl)glycidic acid methyl ester]
[4]; aromatic solvent, ambient temperature, over days
  Stability in solution: stable against the loss of material or optical activity
